Test results as given in US9617242B2, “Histone demethylase inhibitors” (priority 2012, dated 2017).
Where a name gives a salt, the structure may show the parent alone. Read-outs that look alike come from different tables or passages of the source.

Tests used:
JMJD2C = JMJD2C (Homo sapiens (Human), UniProt Q9H3R0); assay: JMJD2C in vitro enzyme inhibition assay (TR-FRET); format: biochemical
Jarid1B = Jarid1B (Homo sapiens (Human), UniProt Q9UGL1); assay: Jarid1B in vitro enzyme inhibition assay (TR-FRET); format: biochemical
Chain of Jarid1B (Q9UGL1 2-751): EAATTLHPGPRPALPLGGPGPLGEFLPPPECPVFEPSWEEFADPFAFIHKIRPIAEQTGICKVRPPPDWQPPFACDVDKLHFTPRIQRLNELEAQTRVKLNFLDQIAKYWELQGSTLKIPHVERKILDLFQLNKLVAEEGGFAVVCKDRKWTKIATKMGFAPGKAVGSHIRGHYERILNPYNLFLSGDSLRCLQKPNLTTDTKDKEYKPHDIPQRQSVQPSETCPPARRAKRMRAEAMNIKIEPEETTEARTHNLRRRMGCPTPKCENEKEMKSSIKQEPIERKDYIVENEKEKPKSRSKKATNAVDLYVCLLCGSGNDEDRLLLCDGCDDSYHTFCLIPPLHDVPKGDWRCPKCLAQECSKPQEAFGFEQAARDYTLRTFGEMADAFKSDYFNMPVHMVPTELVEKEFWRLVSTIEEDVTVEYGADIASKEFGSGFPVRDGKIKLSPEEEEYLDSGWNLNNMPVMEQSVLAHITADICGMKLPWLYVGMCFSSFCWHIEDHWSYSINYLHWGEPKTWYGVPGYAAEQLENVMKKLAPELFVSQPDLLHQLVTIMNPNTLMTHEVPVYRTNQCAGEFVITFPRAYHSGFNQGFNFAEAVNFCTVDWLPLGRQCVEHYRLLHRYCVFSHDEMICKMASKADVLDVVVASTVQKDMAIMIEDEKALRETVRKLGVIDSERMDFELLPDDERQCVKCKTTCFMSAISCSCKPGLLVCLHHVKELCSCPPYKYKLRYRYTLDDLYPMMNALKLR

Jarid1A = Jarid1A (Homo sapiens (Human), UniProt P29375); assay: Jarid1A in vitro enzyme inhibition assay (TR-FRET); format: biochemical
Chain of Jarid1A (P29375 1-1090): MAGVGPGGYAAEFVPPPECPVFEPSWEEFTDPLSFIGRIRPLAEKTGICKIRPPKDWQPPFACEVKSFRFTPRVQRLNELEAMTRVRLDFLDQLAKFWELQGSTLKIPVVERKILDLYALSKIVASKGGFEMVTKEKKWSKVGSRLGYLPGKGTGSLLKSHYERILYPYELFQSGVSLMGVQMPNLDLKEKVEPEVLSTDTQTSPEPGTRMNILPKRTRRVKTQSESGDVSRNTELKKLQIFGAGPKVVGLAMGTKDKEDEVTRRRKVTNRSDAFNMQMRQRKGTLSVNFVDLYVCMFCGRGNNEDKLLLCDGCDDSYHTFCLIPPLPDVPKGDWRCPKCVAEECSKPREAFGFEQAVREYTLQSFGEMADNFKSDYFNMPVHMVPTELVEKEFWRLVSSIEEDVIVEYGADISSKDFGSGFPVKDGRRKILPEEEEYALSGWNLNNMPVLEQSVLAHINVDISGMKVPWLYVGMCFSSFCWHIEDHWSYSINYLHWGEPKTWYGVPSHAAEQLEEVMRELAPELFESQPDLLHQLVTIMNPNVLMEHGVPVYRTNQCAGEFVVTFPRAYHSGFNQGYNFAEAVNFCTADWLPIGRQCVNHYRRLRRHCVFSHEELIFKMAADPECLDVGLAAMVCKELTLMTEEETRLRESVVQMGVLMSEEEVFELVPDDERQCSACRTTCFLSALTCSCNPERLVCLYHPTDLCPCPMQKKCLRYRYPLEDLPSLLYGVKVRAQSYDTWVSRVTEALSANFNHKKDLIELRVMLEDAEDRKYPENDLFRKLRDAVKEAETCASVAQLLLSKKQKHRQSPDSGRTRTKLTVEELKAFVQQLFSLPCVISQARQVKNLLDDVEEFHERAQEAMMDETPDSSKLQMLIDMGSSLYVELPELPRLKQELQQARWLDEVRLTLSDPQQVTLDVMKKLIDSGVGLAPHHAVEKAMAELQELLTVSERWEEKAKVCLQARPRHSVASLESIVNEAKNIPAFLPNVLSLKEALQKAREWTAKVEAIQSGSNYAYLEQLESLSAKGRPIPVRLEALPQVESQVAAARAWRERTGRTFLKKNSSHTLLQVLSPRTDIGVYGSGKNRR

KDM5A/B = assay: In vitro cell-based assay: tri-methyl H3K4 immuno-blotting in ZR-75-1 breast cancer cells
Protocol: This quantitative immuno-blotting assay measures the amount tri-methylated histone H3 at amino acid Lysine number 4, a specific substrate […] of the direct enzymatic activity of the histone demethylases KDM5A and KDM5B from extracts of the ZR-75-1 breast cancer cell line.
This assay is a fluorometric immunoassay for the quantification of tri-methyl H3K4 extracted from cells treated with test compound and is used as a measure of the cellular inhibition of KDM5A/B.
Extracts were prepared containing all of the cellular histone material using detergent based lysis and sonication methods. These lysates were subsequently normalized for total protein content using a colorimetric bicinchonic acid assay (MicroBCA Pierce/Thermo Scientific). Normalized cell extracts were then subjected to typical immuno-blotting procedures using NuPage reagents (Life Technologies). Electrophoretically separated histones were then transferred and immobilized using polyvinylidene difluoride membrane (Immobilon-FL Millipore). The amount of tri-methylated lysine 4 of histone H3 was detected using an antibody specific to the tri-methylated state (Cell Signaling Technologies) and quantified on an infrared imager using a densitometry software package (Odyssey CLx, Image Studio, Li-Cor). This background subtracted densitometry value was reported as a ration of the GAPDH amount for that sample and then calculated as a percent of the DMSO treated sample. The software package XL-fit (IDBS) was then used to calculate a relative IC50 value for the dilution series of a given test compound according to the equation: fit=(D+((Vmax*(x^n))/((x^n)+(Km^n)))).

[1] = 72 hours, read-out: Cellular IC50

Chain of JMJD2C (Q9H3R0 2-372): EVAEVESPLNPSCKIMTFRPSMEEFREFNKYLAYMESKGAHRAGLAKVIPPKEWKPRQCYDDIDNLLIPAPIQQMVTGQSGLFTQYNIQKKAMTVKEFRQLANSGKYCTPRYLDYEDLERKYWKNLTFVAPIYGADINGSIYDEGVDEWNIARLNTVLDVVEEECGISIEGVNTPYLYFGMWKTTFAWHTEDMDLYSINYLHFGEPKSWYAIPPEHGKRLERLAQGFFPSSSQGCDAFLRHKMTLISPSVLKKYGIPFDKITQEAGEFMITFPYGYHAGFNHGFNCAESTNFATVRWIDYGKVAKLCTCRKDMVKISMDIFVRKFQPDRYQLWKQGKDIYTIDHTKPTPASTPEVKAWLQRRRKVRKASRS

SMILES | IC50 (JMJD2C) | IC50 (Jarid1B) | IC50 (Jarid1A) | IC50 (KDM5A/B; [1]) | IC50 (KDM5A/B; read-out: Cellular IC50, 72 hours)
CN(C)CCOCCn1nc(Nc2cnccc2C(=O)O)c2ccccc21 [Example 11, 3-[(1-{2-[2-(dimethylamino)ethoxy]ethyl}-1H-indazol-3-yl)amino]pyridine-4-carboxylic acid] | < 100 nM | < 100 nM | < 100 nM | > 10000 nM | 
O=C(O)c1ccncc1Nc1nn(CCCO)c2ccc(F)cc12 [Example 42, 3-{[5-fluoro-1-(3-hydroxypropyl)-1H-indazol-3-yl]amino}pyridine-4-carboxylic acid] | < 100 nM | < 100 nM | < 100 nM | 1000 to 10000 nM | 
O=C(O)c1ccncc1Nc1nn(CCC2CCCNC2)c2ccc(F)cc12 (centres unmarked) [Example 47, 3-({5-fluoro-1-[2-(piperidin-3-yl)ethyl]-1H-indazol-3-yl}amino)pyridine-4-carboxylic acid, trifluoroacetic acid salt] | < 100 nM | < 100 nM | < 100 nM |  | > 10000 nM
O=C(O)c1ccncc1Nc1nn(CCN2CCCC2)c2ccc(F)cc12 [Example 50, 3-({5-fluoro-1-[2-(pyrrolidin-1-yl)ethyl]-1H-indazol-3-yl}amino)pyridine-4-carboxylic acid] | < 100 nM | < 100 nM | < 100 nM | 1000 to 10000 nM | 
CN1CCOC(CCn2nc(Nc3cnccc3C(=O)O)c3cc(F)ccc32)C1 (centres unmarked) [Example 58, 3-({5-fluoro-1-[2-(4-methylmorpholin-2-yl)ethyl]-1H-indazol-3-yl}amino)pyridine-4-carboxylic acid] | < 100 nM | < 100 nM | < 100 nM | 1000 to 10000 nM | 
O=C(O)c1ccncc1Nc1nn([C@@H]2CCOC2)c2ccc(F)cc12 [Example 67, 3-({5-fluoro-1-[(3R)-tetrahydrofuran-3-yl]-1H-indazol-3-yl}amino)pyridine-4-carboxylic acid] | < 100 nM | < 100 nM | < 100 nM | 1000 to 10000 nM | 
Cn1nc(Nc2cnccc2C(=O)O)c2cc(F)ccc21 [Example 7, 3-[(5-fluoro-1-methyl-1H-indazol-3-yl)amino]pyridine-4-carboxylic acid] | < 100 nM | < 100 nM | < 100 nM | 1000 to 10000 nM | 
COCCCn1nc(Nc2cnccc2C(=O)O)c2cc(F)ccc21 [Example 17, 3-{[5-fluoro-1-(methoxypropyl)-1H-indazol-3-yl]amino}pyridine-4-carboxylic acid] | < 100 nM | < 100 nM | < 100 nM | > 10000 nM | 
CCCn1nc(Nc2cnccc2C(=O)O)c2cc(C#N)ccc21 [Example 53] | < 100 nM | < 100 nM | < 100 nM | 1000 to 10000 nM | 
O=C(O)c1ccncc1Nc1nn(CCN2CCC(F)(F)CC2)c2ccc(F)cc12 [Example 73, 3-({1-[2-(4,4-difluoropiperidin-1yl)ethyl]-5-fluoro-1H-indazol-3-yl}amino)pyridine-4-carboxylic acid] | < 100 nM | < 100 nM | < 100 nM | 100 to 1000 nM | 
O=C(O)c1ccncc1Nc1nn([C@H]2CCOC2)c2ccc(F)cc12 [Example 66, 3-({5-fluoro-1-[(3S)-tetrahydrofuran-3-yl]-1H-indazol-3-yl}amino)pyridine-4-carboxylic acid] | < 100 nM | < 100 nM | < 100 nM | 1000 to 10000 nM | 
Cn1nc(Nc2cnccc2C(=O)O)c2ccccc21 [Example 1, 3-[(1-methyl-1H-indazol-3-yl)amino]pyridine-4-carboxylic acid] | < 100 nM | < 100 nM | < 100 nM | 1000 to 10000 nM | 
CCCn1nc(Nc2cnccc2C(=O)O)c2cccc(F)c21 [Example 20, 3-[(7-fluoro-1-propyl-1H-indazol-3-yl)amino]pyridine-4-carboxylic acid] | < 100 nM | < 100 nM | < 100 nM | 1000 to 10000 nM | 
CN(C)CCOCCn1nc(Nc2cnccc2C(=O)O)c2cc(F)ccc21 [Example 27, 3-[(1-{2-[2-(dimethylamino)ethoxy]ethyl}-5-fluoro-1H-indazol-3-yl)amino]pyridine-4-carboxylic acid, acetic acid salt] | < 100 nM | < 100 nM | < 100 nM | > 10000 nM | 
